How the values were obtained:
NCI-H460 cells = assay: Proliferation assay NCI-H460; assay type: cell-based, human; conditions: Homo sapiens, NCI-H460, 96 h, 4 days, crystal violet; read-out: Inhibition of NCI-H460 cell proliferation IC50
Protocol: Cultivated tumour cells (HeLa, human cervical tumour cells, ATCC CCL-2; NCI-H460, human non-small cell lung carcinoma cells, ATCC HTB-177; A2780, human ovarian carcinoma cells, ECACC #93112519; DU 145, hormone-independent human prostate carcinoma cells, ATCC HTB-81; HeLa-MaTu-ADR, multidrug-resistant human cervical carcinoma cells, EPO-GmbH Berlin; Caco-2, human colorectal carcinoma cells, ATCC HTB-37; B16F10, mouse melanoma cells, ATCC CRL-6475) were plated at a density of 5,000 cells/well (DU145, HeLa-MaTu-ADR), 3,000 cells/well (NCI-H460, HeLa), 2,500 cells/well (A2780), 1,500 cells/well (Caco-2), or 1,000 cells/well (B16F10) in a 96-well multititer plate in 200 μL of their respective growth medium supplemented 10% fetal calf serum. After 24 hours, the cells of one plate (zero-point plate) were stained with crystal violet (see below), while the medium of the other plates was replaced by fresh culture medium (200 μl), to which the test substances were added in various concentrations (0 μM, as well as in the range of 0.001-10 μM). The cells were incubated for 4 days in the presence of test substances. Cell proliferation was determined by staining the cells with crystal violet: the cells were fixed by adding 20 μl/measuring point of an 11% glutaric aldehyde solution for 15 minutes at room temperature. After three washing cycles of the fixed cells with water, the plates were dried at room temperature. The cells were stained by adding 100 μl/measuring point of a 0.1% crystal violet solution (pH 3.0). After three washing cycles of the stained cells with water, the plates were dried at room temperature. The dye was dissolved by adding 100 μl/measuring point of a 10% acetic acid solution. The extinction was determined by photometry at a wavelength of 595 nm. The change of cell number, in percent, was calculated by normalization of the measured values to the extinction values of the zero-point plate (=0%) and the extinction of the untreated (0 μm) cells (=100%). The IC50 values (inhibitory concentration at 50% of maximal effect) were determined by means of a 4 parameter fit. Non-adherent MOLM-13 human acute myeloid leukemia cells (DSMZ ACC 554) were seeded at a density of 5,000 cells/well in a 96-well multititer plate in 100 μL of growth medium supplemented 10% fetal calf serum. After 24 hours, cell viability of one plate (zero-point plate) was determined with the Cell Titre-Glo Luminescent Cell Viability Assay (Promega), while 50 μL of test compound containing medium was added to the wells of the other plates (final concentrations in the range of 0.001-1 μM and DMSO controls). Cell viability was assessed after 72-hour exposure with the Cell Titre-Glo Luminescent Cell Viability Assay (Promega). IC50 values (inhibitory concentration at 50% of maximal effect) were determined by means of a 4 parameter fit on measurement data which were normalized to vehicle (DMSO) treated cells (=100%) and measurement readings taken immediately before compound exposure (=0%).

CDK2/CycE = molecular target: T1, CDK2/CycE (Homo sapiens, UniProt P24941); assay: CDK2/CycE high ATP kinase assay (TR-FRET, Method 2b); assay type: biochemical; conditions: 2 mM ATP
T1 construct: GST; purchased ProQinase GmbH (Freiburg, Germany); host or cells: insect cells (Sf9)
Protocol: 2b. CDK2/CycE High ATP Kinase Assay:
CDK2/CycE-inhibitory activity of compounds of the present invention at 2 mM adenosine-tri-phosphate (ATP) was quantified employing the CDK2/CycE TR-FRET (TR-FRET=Time Resolved Fluorescence Resonance Energy Transfer) assay as described in the following paragraphs.
Recombinant fusion proteins of GST and human CDK2 and of GST and human CycE, expressed in insect cells (Sf9) and purified by Glutathion-Sepharose affinity chromatography, were purchase from ProQinase GmbH (Freiburg, Germany). As substrate for the kinase reaction biotinylated peptide biotin-Ttds-YISPLKSPYKISEG (C-terminus in amid form) was used which can be purchased e.g. from the company JERINI peptide technologies (Berlin, Germany).
For the assay 50 nl of a 100 fold concentrated solution of the test compound in DMSO was pipetted into a black low volume 384 well microtiter plate (Greiner Bio-One, Frickenhausen, Germany), 2 μl of a solution of CDK2/CycE in aqueous assay buffer [50 mM Tris/HCl pH 8.0, 10 mM MgCl2, 1.0 mM dithiothreitol, 0.1 mM sodium ortho-vanadate, 0.01% (v/v) Nonidet-P40 (Sigma)] were added and the mixture was incubated for 15 min at 22° C. to allow pre-binding of the test compounds to the enzyme before the start of the kinase reaction. […] The concentration of CDK2/CycE was adjusted depending of the activity of the enzyme lot and was chosen appropriate to have the assay in the linear range, typical concentrations were in the range of 15 ng/ml. The reaction was stopped by the addition of 5 μl of a solution of TR-FRET detection reagents (0.2 μM streptavidine-XL665 [Cisbio Bioassays, Codolet, France] and 1 nM anti-RB(pSer807/pSer811)-antibody from BD Pharmingen [#558389] and 1.2 nM LANCE EU-W1024 labeled anti-mouse IgG antibody [Perkin-Elmer, product no. AD0077, as an alternative a Terbium-cryptate-labeled anti-mouse IgG antibody from Cisbio Bioassays can be used]) in an aqueous EDTA-solution (100 mM EDTA, 0.2% (w/v) bovine serum albumin in 100 mM HEPES pH 7.5).
The resulting mixture was incubated 1 h at 22° C. to allow the formation of complex between the phosphorylated biotinylated peptide and the detection reagents. Subsequently the amount of phosphorylated substrate was evaluated by measurement of the resonance energy transfer from the Eu-chelate to the streptavidine-XL. Therefore, the fluorescence emissions at 620 nm and 665 nm after excitation at 350 nm were measured in a TR-FRET reader, e.g. a Rubystar (BMG Labtechnologies, Offenburg, Germany) or a Viewlux (Perkin-Elmer). The ratio of the emissions at 665 nm and at […] was taken as the measure for the amount of phosphorylated substrate. The data were normalised (enzyme reaction without inhibitor=0% inhibition, all other assay components but no enzyme=100% inhibition).

Row | Compound | IC50 (NCI-H460 cells) [µM] | IC50 (CDK2/CycE) [µM]
1 | CS(=N)(=O)Cc1cc2cc(c1)OCCCCOc1cc(F)ccc1-c1nc(ncc1F)N2 (racemic) [Example 1, (rac)-16,20-Difluoro-9-[(S-methylsulfonimidoyl)methyl]-2,3,4,5-tetrahydro-12H-13,17-(azeno)-11,7-(metheno)-1,6,12,14-benzodioxadiazacyclononadecine] | 0.02 | 0.216
2 | C[S+]([O-])Cc1cc2nc(c1)OCCCOc1cc(F)ccc1-c1cc(ncc1F)N2 (racemic) [Example 4, (rac)-15,19-Difluoro-8-[(methylsulfinyl)methyl]-3,4-dihydro-2H,11H-10,6-(azeno)-12,16-(metheno)-1,5,11,13-benzodioxadiazacyclooctadecine] | 0.012 | 0.0321
3 | CS(=N)(=O)Cc1cc2nc(c1)OCCCOc1cc(F)ccc1-c1cc(ncc1F)N2 (racemic) [Example 5, (rac)-15,19-Difluoro-8-[(S-methylsulfonimidoyl)methyl]-3,4-dihydro-2H,11H-10,6-(azeno)-12,16-(metheno)-1,5,11,13-benzodioxadiazacyclooctadecine] | 0.006 | 0.02
4 | C[S+]([O-])Cc1cc2nc(c1)OCCOc1cc(F)ccc1-c1cc(ncc1F)N2 (racemic) [Example 10, (rac)-14,18-difluoro-7-[(methylsulfinyl)methyl]-2,3-dihydro-10H-9,5-(azeno)-11,15-(metheno)-1,4,10,12-benzodioxadiazacycloheptadecine] | 0.393 | 3.5
5 | CS(=N)(=O)Cc1cc2nc(c1)OCCOc1cc(F)ccc1-c1cc(ncc1F)N2 (racemic) [Example 11, (rac)-14,18-difluoro-7-[(S-methylsulfonimidoyl)methyl]-2,3-dihydro-10H-9,5-(azeno)-11,15-(metheno)-1,4,10,12-benzodioxadiazacycloheptadecine] | 0.186 | 2.12
6 | C[S+]([O-])Cc1cc2nc(c1)OCCCCOc1cc(F)ccc1-c1cc(ncc1F)N2 (racemic) [Example 13, (rac)-16,20-difluoro-9-[(methylsulfinyl)methyl]-2,3,4,5-tetrahydro-12H-11,7-(azeno)-13,17-(metheno)-1,6,12,14-benzodioxadiazacyclononadecine] | 0.033 | 0.113
7 | CS(=N)(=O)Cc1cc2nc(c1)OCCCCOc1cc(F)ccc1-c1cc(ncc1F)N2 (racemic) [Example 14, (rac)-16,20-difluoro-9-[(S-methylsulfonimidoyl)methyl]-2,3,4,5-tetrahydro-12H-11,7-(azeno)-13,17-(metheno)-1,6,12,14-benzodioxadiazacyclononadecine] | 0.019 | 0.162
8 | CS(=N)(=O)Cc1cc2cc(c1)OCCCOc1cc(F)ccc1-c1nc(ncc1F)N2 (racemic) [Example 15, (rac)-15,19-difluoro-8-[(S-methylsulfonimidoyl)methyl]-3,4-dihydro-2H,11H-12,16-(azeno)-10,6-(metheno)-1,5,11,13-benzodioxadiazacyclooctadecine] | 0.03 | 0.237
9 | CS(=O)(Cc1cc2cc(c1)OCCCOc1cc(F)ccc1-c1nc(ncc1F)N2)=NC(=O)C(F)(F)F (racemic) [Example 16, (rac)-N-[{[15,19-difluoro-3,4-dihydro-2H,11H-12,16-(azeno)-10,6-(metheno)-1,5,11,13-benzodioxadiazacyclooctadecin-8-yl]methyl}(methyl)oxido-λ^6-sulfanylidene]-2,2,2-trifluoroacetamide] | 0.026 | 0.67
10 | CCNC(=O)N=S(C)(=O)Cc1cc2nc(c1)OCCCOc1cc(F)ccc1-c1cc(ncc1F)N2 (racemic) [Example 17, (rac)-1-[{[15,19-difluoro-3,4-dihydro-2H,11H-10,6-(azeno)-12,16-(metheno)-1,5,11,13-benzodioxadiazacyclooctadecin-8-yl]methyl}(methyl)oxido-λ^6-sulfanylidene]-3-ethylurea] | 0.031 | 0.0359
11 | CC(=O)N=S(C)(=O)Cc1cc2nc(c1)OCCCOc1cc(F)ccc1-c1cc(ncc1F)N2 (racemic) [Example 18, (rac)-N-[{[15,19-difluoro-3,4-dihydro-2H,11H-10,6-(azeno)-12,16-(metheno)-1,5,11,13-benzodioxadiazacyclooctadecin-8-yl]methyl}(methyl)oxido-λ^6-sulfanylidene]acetamide] | 0.027 | 0.0632
12 | CN=S(C)(=O)Cc1cc2nc(c1)OCCCOc1cc(F)ccc1-c1cc(ncc1F)N2 (racemic) [Example 19, (rac)-8-[(N,S-dimethylsulfonimidoyl)methyl]-15,19-difluoro-3,4-dihydro-2H,11H-10,6-(azeno)-12,16-(metheno)-1,5,11,13-benzodioxadiazacyclooctadecine] | 0.049 | 0.159
13 | CCOC(=O)N=S(C)(=O)Cc1cc2nc(c1)OCCCOc1cc(F)ccc1-c1cc(ncc1F)N2 (racemic) [Example 20, (rac)-ethyl [{[15,19-difluoro-3,4-dihydro-2H,11H-10,6-(azeno)-12,16-(metheno)-1,5,11,13-benzodioxadiazacyclooctadecin-8-yl]methyl}(methyl)oxido-λ^6-sulfanylidene]carbamate] | 0.035 | 0.0446
14 | CS(=O)(Cc1cc2nc(c1)OCCCOc1cc(F)ccc1-c1cc(ncc1F)N2)=NC(=O)OCCCl (racemic) [Example 21, (rac)-2-chloroethyl [{[15,19-difluoro-3,4-dihydro-2H,11H-10,6-(azeno)-12,16-(metheno)-1,5,11,13-benzodioxadiazacyclooctadecin-8-yl]methyl}(methyl)oxido-λ^6-sulfanylidene]carbamate] | 0.028 | 0.0748
15 | CSCc1cc2nc(c1)OCCOc1cc(F)ccc1-c1cc(ncc1F)N2 [Example 9, 14,18-Difluoro-7-[(methylsulfanyl)methyl]-2,3-dihydro-10H-9,5-(azeno)-11,15-(metheno)-1,4,10,12-benzodioxadiazacycloheptadecine] | – | > 20

— patent US9963464B2, “Macrocyclic compounds” (Bayer Pharma Aktiengesellschaft, priority 2014, dated 2018)
